Assay results as given in patent publication US20240398771A1, “TREATMENT OF SCLERODERMA AND RAYNAUD'S SYNDROME” (Aisa Pharma, Inc., priority 2023, published 2024).

Assays:
participants with SSc-RP [1] = test: Average severity (0-10) of weekly RP attacks, all attacks; format: in vivo, human; conditions: Tadalafil 5 mg; excluding outliers; baseline RCS subgroup 2 of 2; ITT Part A
From the text: (§1) The relevant metrics measured by this tool daily are: • Study medication • SSc-RP symptoms (Reporting an attack including duration of attack) • Severity of the attack considering all symptoms of the attack e.g. tingling, numbness, pain, color changes (VAS 0-10 cm scale) • Participant's location at the time of the attack (inside home/outside home) • Selecting symptoms experienced during the attack (tingling, numbness, pain, color changes, other) • Pain rating during the attack (11-point Likert scale) • The RCS based on how much difficulty participants had with Raynaud's today, how many attacks the participant had, and how long they lasted. Participants will also be asked to consider how much pain, numbness, or other symptoms the Raynaud's caused in fingers (including painful sores), and how much the Raynaud's alone affected the use of hands today (VAS 0-10 cm scale).
(§2) The absolute change in average severity of weekly RP attacks (VAS 0-10 cm scale) from baseline to the end of each Dosing Period was and will be a secondary outcome variable. The sponsor-developed participant-informed diary will be used to record data. Average severity of weekly RP attacks is defined as the total severity scores of RP attacks divided by total number of RP attacks within the last 7 days of each dosing period. Total severity scores of RP attacks during the last 7 days of screening period divided by the total number of RP attacks will be used as baseline for the analysis of all periods. The variable will be calculated similar to frequency data as before.

participants with SSc-RP [2] = test: Average duration of weekly symptomatic RP attacks (minutes); format: in vivo, human; conditions: ITT Part A
From the text: as §1
as §2, with “duration” for “severity”, “attacks” for “attacks (VAS 0-10 cm scale)”, “dosing period” for “Dosing Period”, “diary was and” for “diary”, “duration” for “severity scores”

[3] = oral dosing; cited from earlier work
[4] = Excluding Outliers, Baseline RCS subgroup 2 (second half of Table B-4, stratum not given), last 7 days of dosing period
[5] = Excluding Outliers, Baseline RCS subgroup 2 (second half of Table B-4, stratum not given), last 7 days of screening period
[6] = Baseline RCS subgroup 2 (Table B-3, stratum not given), last 7 days of dosing period
[7] = Baseline RCS subgroup 2 (Table B-3, stratum not given), last 7 days of screening period

CN1CC(=O)N2[C@H](c3ccc4c(c3)OCO4)c3[nH]c4ccccc4c3C[C@@H]2C1=O [Tadalafil]
Average Severity of Weekly RP Attacks (All Attacks): Average Severity, Mean (participants with SSc-RP [1]): 4.56
Average Severity of Weekly RP Attacks (All Attacks): Average Severity, Median (participants with SSc-RP [1]): 4.56
Average Severity of Weekly RP Attacks (All Attacks): Baseline, Mean (participants with SSc-RP [1]): 5.75
Average Severity of Weekly RP Attacks (All Attacks): Baseline, Median (participants with SSc-RP [1]): 5.75
Average Duration of weekly symptomatic RP attacks, Max (participants with SSc-RP [2]; [4]): 6.0, 6.0 minutes
Average Duration of weekly symptomatic RP attacks, Mean (participants with SSc-RP [2]; [4]): 6.00 min
Average Duration of weekly symptomatic RP attacks, Median (participants with SSc-RP [2]; [4]): 6.00 min
Average Duration of weekly symptomatic RP attacks, Min (participants with SSc-RP [2]; [4]): 6.0, 6.0 minutes
Average Duration of weekly symptomatic RP attacks, Q1 (participants with SSc-RP [2]; [4]): 6.00, 6.00 minutes
Average Duration of weekly symptomatic RP attacks, Q3 (participants with SSc-RP [2]; [4]): 6.00, 6.00 minutes
Average duration of weekly symptomatic RP attacks, Change from Baseline, Max (participants with SSc-RP [2]; [4]): −4.6, −4.6 minutes
Average duration of weekly symptomatic RP attacks, Change from Baseline, Mean (participants with SSc-RP [2]; [4]): -4.58 min
Average duration of weekly symptomatic RP attacks, Change from Baseline, Min (participants with SSc-RP [2]; [4]): −4.6, −4.6 minutes
Average duration of weekly symptomatic RP attacks, Change from Baseline, Q3 (participants with SSc-RP [2]; [4]): −4.58, −4.58 minutes
Average duration of weekly symptomatic RP attacks, Percent Change from Baseline, Max (participants with SSc-RP [2]; [4]): −43.3, −43.3%
Average duration of weekly symptomatic RP attacks, Percent Change from Baseline, Mean (participants with SSc-RP [2]; [4]): −43.31%
Average duration of weekly symptomatic RP attacks, Percent Change from Baseline, Min (participants with SSc-RP [2]; [4]): −43.3, −43.3%
Average duration of weekly symptomatic RP attacks, Percent Change from Baseline, Q3 (participants with SSc-RP [2]; [4]): −43.31, −43.31%
Average duration of weekly symptomatic RP attacks, Baseline, Max (participants with SSc-RP [2]; [5]): 10.6, 10.6 minutes
Average duration of weekly symptomatic RP attacks, Baseline, Mean (participants with SSc-RP [2]; [5]): 10.58 min
Average duration of weekly symptomatic RP attacks, Baseline, Median (participants with SSc-RP [2]; [5]): 10.58 min
Average duration of weekly symptomatic RP attacks, Baseline, Min (participants with SSc-RP [2]; [5]): 10.6, 10.6 minutes
Average duration of weekly symptomatic RP attacks, Baseline, Q1 (participants with SSc-RP [2]; [5]): 10.58, 10.58 minutes
Average duration of weekly symptomatic RP attacks, Baseline, Q3 (participants with SSc-RP [2]; [5]): 10.58, 10.58 minutes
Average Duration of weekly symptomatic RP attacks (participants with SSc-RP [2]; [6]): 6.0 min
Average Duration of weekly symptomatic RP attacks, Max (participants with SSc-RP [2]; [6]): 818.6 min
Average Duration of weekly symptomatic RP attacks, Q1 (participants with SSc-RP [2]; [6]): 6.00 min
Average Duration of weekly symptomatic RP attacks, Q3 (participants with SSc-RP [2]; [6]): 818.57 min
Average duration of weekly symptomatic RP attacks, Change from Baseline (participants with SSc-RP [2]; [6]): -4.6 min
Average duration of weekly symptomatic RP attacks, Change from Baseline, Max (participants with SSc-RP [2]; [6]): 286.1 min
Average duration of weekly symptomatic RP attacks, Change from Baseline, Q1 (participants with SSc-RP [2]; [6]): -4.58 min
Average duration of weekly symptomatic RP attacks, Change from Baseline, Q3 (participants with SSc-RP [2]; [6]): 286.07 min
Average duration of weekly symptomatic RP attacks, Percent Change from Baseline, Max (participants with SSc-RP [2]; [6]): 53.7%
Average duration of weekly symptomatic RP attacks, Percent Change from Baseline, Min (participants with SSc-RP [2]; [6]): −43.3%
Average duration of weekly symptomatic RP attacks, Percent Change from Baseline, Q1 (participants with SSc-RP [2]; [6]): −43.31%
Average duration of weekly symptomatic RP attacks, Percent Change from Baseline, Q3 (participants with SSc-RP [2]; [6]): 53.72%
Average duration of weekly symptomatic RP attacks, Baseline (participants with SSc-RP [2]; [7]): 10.6 min
Average duration of weekly symptomatic RP attacks, Baseline, Max (participants with SSc-RP [2]; [7]): 532.5 min
Average duration of weekly symptomatic RP attacks, Baseline, Mean (participants with SSc-RP [2]; [7]): 271.54 min
Average duration of weekly symptomatic RP attacks, Baseline, Median (participants with SSc-RP [2]; [7]): 271.54 min
Average duration of weekly symptomatic RP attacks, Baseline, Q1 (participants with SSc-RP [2]; [7]): 10.58 min
Average duration of weekly symptomatic RP attacks, Baseline, Q3 (participants with SSc-RP [2]; [7]): 532.50 min
time to achieve maximal plasma concentrations (Tmax) [3]: 2 h
